According to patent US12421212B2, “Substituted benzenecarboxamides as IL-17A modulators” (DiCE Alpha, Inc., priority 2019, dated 2025):

Each compound was assayed against T1, IL-17A/A (Homo sapiens, UniProt Q16552) (assay: IL-17A/A HEK-Blue Cell Assay). Settings: HEK-Blue IL-17A reporter cell line, SEAP readout at A630, 20 hours incubation with IL-17A/A; top concentration 10 uM, 1 uM or 0.3 uM.
T1 construct: purchased Genscript Z03228
T1 sequence (Q16552 24-155): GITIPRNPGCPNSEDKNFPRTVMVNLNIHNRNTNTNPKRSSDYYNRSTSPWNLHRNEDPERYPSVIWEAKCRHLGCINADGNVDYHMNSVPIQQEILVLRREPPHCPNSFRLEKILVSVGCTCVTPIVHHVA
Format: cell-based

Row | SMILES | IL-17A/A inhibition (pIC50)
1 | CCC(=O)N[C@H](C(=O)N1CCN(C)CC1)[C@@H](C)c1ccc(NC(=O)[C@@H](NC(=O)c2ccnn2CC)[C@H]2CC[C@H](C)CC2)c(F)c1 [Compound 543] | X3b (compounds were evaluated up to 0.3 uM and inhibited activity at 0.3 uM by less than 20%)
2 | CCC(=O)N[C@@H](C(=O)N1CCN(C)CC1)[C@H](C)c1ccc(NC(=O)[C@@H](NC(=O)c2ccnn2CC)[C@H]2CC[C@H](C)CC2)c(F)c1 [Compound 544] | X3a (compounds were evaluated up to 0.3 uM and did not inhibit activity by >80%, however they showed some activity at 0.3 uM (less than 80% and more than 20%))
3 | CCC(=O)N[C@@H](C(=O)N1CCN(C)CC1)[C@@H](C)c1ccc(NC(=O)[C@@H](NC(=O)c2cnon2)[C@H]2CC[C@H](C)CC2)c(F)c1 [Compound 547] | X3b (compounds were evaluated up to 0.3 uM and inhibited activity at 0.3 uM by less than 20%)
4 | C[C@@H](c1ccc(NC(=O)[C@@H](NC(=O)c2cnon2)[C@H]2CC[C@H](C)CC2)c(F)c1)[C@@H](NC(=O)c1cnns1)C(=O)N1CCN(C)CC1 [Compound 548] | X2b (compounds were evaluated up to 1 uM and inhibited activity at 1 uM by less than 20%)
5 | CCC(=O)N[C@@H](C(=O)N1CCN(C)CC1)[C@@H](C)c1ccc(NC(=O)C(NC(=O)c2nonc2CC)C(CC)c2ccc(Cl)cc2)c(F)c1 (stereo partly shown) [Compound 567] | X2b (compounds were evaluated up to 1 uM and inhibited activity at 1 uM by less than 20%)
6 | CCc1nonc1C(=O)N[C@H](C(=O)Nc1ccc([C@H](C)[C@@H](NC(=O)c2ncns2)C(=O)N2CCN(C)CC2)cc1F)[C@H]1CC[C@H](C)CC1 [Compound 575] | X3a (compounds were evaluated up to 0.3 uM and did not inhibit activity by >80%, however they showed some activity at 0.3 uM (less than 80% and more than 20%))
7 | CCc1nonc1C(=O)N[C@H](C(=O)Nc1ccc([C@H](C)[C@@H](NC(=O)c2ncccc2OC)C(=O)N2CCN(C)CC2)cc1F)[C@H]1CC[C@H](C)CC1 [Compound 578] | X3b (compounds were evaluated up to 0.3 uM and inhibited activity at 0.3 uM by less than 20%)
8 | CCC(=O)N[C@@H](C(=O)N1CC(n2ccnc2)C1)[C@@H](C)c1ccc(NC(=O)[C@@H](NC(=O)c2nonc2CC)[C@H]2CC[C@H](C)CC2)c(F)c1 [Compound 580] | X3a (compounds were evaluated up to 0.3 uM and did not inhibit activity by >80%, however they showed some activity at 0.3 uM (less than 80% and more than 20%))
9 | CCC(=O)N[C@@H](C(=O)N1CCN(C)CC1)[C@@H](C)c1ccc(NC(=O)C(NC(=O)c2ccnn2CC)C(C)C2CCC(C)CC2)c(F)c1 (stereo partly shown) [Compound 612] | X2b (compounds were evaluated up to 1 uM and inhibited activity at 1 uM by less than 20%)

Same assay, conditions: HEK-Blue IL-17A reporter cell line, SEAP readout at A630, 20 hours incubation with IL-17A/A; top concentration 10 uM, 1 uM or 0.3 uM; read-out: IL-17A/A inhibition (pIC50) (converted)

Row | SMILES | IC50
10 | CCC(=O)N[C@@H](C(=O)N1CCN(C)CC1)[C@@H](C)c1ccc(NC(=O)[C@@H](NC(=O)c2ccnn2C2COC2)[C@H]2CC[C@H](C)CC2)c(F)c1 [Compound 545] | 10 to 100 nM
11 | C[C@@H](c1ccc(NC(=O)[C@@H](NC(=O)c2ccnn2C2COC2)[C@H]2CC[C@H](C)CC2)c(F)c1)[C@@H](NC(=O)c1cnns1)C(=O)N1CCN(C)CC1 [Compound 546] | 10 to 100 nM
12 | CCC(=O)N[C@@H](C(=O)N1CCN(C)CC1)[C@@H](C)c1ccc(NC(=O)[C@@H](NC(=O)c2nonc2C(C)C)[C@H]2CC[C@H](C)CC2)c(F)c1 [Compound 549] | < 10 nM
13 | CC(C)c1nonc1C(=O)N[C@H](C(=O)Nc1ccc([C@H](C)[C@@H](NC(=O)c2cnns2)C(=O)N2CCN(C)CC2)cc1F)[C@H]1CC[C@H](C)CC1 [Compound 550] | < 10 nM
14 | CCC(=O)N[C@@H](C(=O)N1CCN(C)CC1)[C@@H](C)c1ccc(NC(=O)[C@@H](NC(=O)c2nonc2OC)[C@H]2CC[C@H](C)CC2)c(F)c1 [Compound 551] | 10 to 100 nM
15 | COc1nonc1C(=O)N[C@H](C(=O)Nc1ccc([C@H](C)[C@@H](NC(=O)c2cnns2)C(=O)N2CCN(C)CC2)cc1F)[C@H]1CC[C@H](C)CC1 [Compound 552] | 10 to 100 nM
16 | CCC(=O)N[C@@H](C(=O)N1CCN(C)CC1)[C@@H](C)c1ccc(NC(=O)C(NC(=O)c2nonc2CC)C(CC)c2ccc(Cl)cc2)c(F)c1 (stereo partly shown) [Compound 566] | 10 to 100 nM
17 | CCC(=O)N[C@@H](C(=O)N1CCN(C)CC1)C(OC)c1ccc(NC(=O)[C@@H](NC(=O)c2ccnn2CC)[C@H]2CC[C@H](C)CC2)c(F)c1 (stereo partly shown) [Compound 572] | 100 to 10000 nM
18 | [2H]C1([2H])N(C)C([2H])([2H])C([2H])([2H])N(C(=O)[C@H](NC(=O)CC)[C@@H](C)c2ccc(NC(=O)[C@@H](NC(=O)c3ccnn3CC)[C@H]3CC[C@H](C)CC3)c(F)c2)C1([2H])[2H] [Compound 573] | < 10 nM
19 | CCc1nonc1C(=O)N[C@H](C(=O)Nc1ccc([C@H](C)[C@@H](NC(=O)N(CC)C2CC2)C(=O)N2CCN(C)CC2)cc1F)[C@H]1CC[C@H](C)CC1 [Compound 574] | < 10 nM
20 | CCc1nonc1C(=O)N[C@H](C(=O)Nc1ccc([C@H](C)[C@@H](NC(=O)c2cccnc2OC)C(=O)N2CCN(C)CC2)cc1F)[C@H]1CC[C@H](C)CC1 [Compound 576] | 10 to 100 nM
21 | CCc1nonc1C(=O)N[C@H](C(=O)Nc1ccc([C@H](C)[C@@H](NC(=O)c2c(OC)cnn2CC)C(=O)N2CCN(C)CC2)cc1F)[C@H]1CC[C@H](C)CC1 [Compound 577] | 10 to 100 nM
22 | CCc1nonc1C(=O)N[C@H](C(=O)Nc1ccc([C@H](C)[C@@H](NC(=O)c2ccnc3c2OCCO3)C(=O)N2CCN(C)CC2)cc1F)[C@H]1CC[C@H](C)CC1 [Compound 579] | 10 to 100 nM
23 | CCC(=O)N[C@@H](C(=O)N1CCN(C)CC1)[C@@H](C)c1ccc(NC(=O)[C@@H](NC(=O)c2nonc2C)[C@H]2CC[C@H](C)CC2)c(F)c1 [Compound 582] | 10 to 100 nM
24 | Cc1nonc1C(=O)N[C@H](C(=O)Nc1ccc([C@H](C)[C@@H](NC(=O)c2cnns2)C(=O)N2CCN(C)CC2)cc1F)[C@H]1CC[C@H](C)CC1 [Compound 583] | < 10 nM
25 | CCC(=O)N[C@@H](C(=O)N1CCN(C)CC1)[C@@H](C)c1ccc(NC(=O)[C@@H](NC(=O)c2nonc2CC)[C@H](C)[C@H]2CC[C@H](C)CC2)c(F)c1 [Compound 586] | < 10 nM
26 | CCC(=O)N[C@@H](C(=O)N1CCN(C)CC1)[C@@H](C)c1ccc(NC(=O)[C@@H](NC(=O)c2ccnn2CC)[C@H](C)[C@H]2CC[C@H](C)CC2)c(F)c1 [Compound 587] | 10 to 100 nM

Row | SMILES | IC50
27 | CCn1nnnc1C(=O)N[C@H](C(=O)Nc1ccc([C@H](C)[C@@H](NC(=O)N(C)C2CC2)C(=O)N2CCN(C)[C@H](C)C2)cc1F)[C@H]1CC[C@H](C)CC1 [Compound 604] | < 10 nM
28 | CCn1nnnc1C(=O)N[C@H](C(=O)Nc1ccc([C@H](C)[C@@H](NC(=O)C(C)(F)F)C(=O)N2CCN(C)[C@H](C)C2)cc1F)[C@H]1CC[C@H](C)CC1 [Compound 605] | 10 to 100 nM
29 | CCC(=O)N[C@@H](C(=O)N1CCN(C)CC1)[C@@H](C)c1ccc(NC(=O)C(NC(=O)c2nonc2CC)C(C)C2CCC(F)(F)CC2)c(F)c1 (stereo partly shown) [Compound 607] | 10 to 100 nM
30 | CCC(=O)N[C@@H](C(=O)N1CCN(C)CC1)[C@@H](C)c1ccc(NC(=O)[C@@H](NC(=O)c2ccnn2CC)[C@H](OC)c2ccc(F)cc2)c(F)c1 [Compound 610] | 100 to 10000 nM
31 | CCC(=O)N[C@@H](C(=O)N1CCN(C)CC1)[C@@H](C)c1ccc(NC(=O)[C@@H](NC(=O)c2nonc2CC)[C@H](OC)c2ccc(F)cc2)c(F)c1 [Compound 611] | 10 to 100 nM
32 | COc1ccc(C(F)(F)C(=O)N[C@H](C(=O)Nc2ccc([C@H](C)[C@@H](NC(=O)c3cnns3)C(=O)N3CCN(C)CC3)cc2F)[C@H]2CC[C@H](C)CC2)cn1 [Compound 620] | < 10 nM
33 | COc1ncc(C(F)(F)C(=O)N[C@H](C(=O)Nc2ccc([C@H](C)[C@@H](NC(=O)c3cnns3)C(=O)N3CCN(C)CC3)cc2F)[C@H]2CC[C@H](C)CC2)cn1 [Compound 621] | 10 to 100 nM
34 | COc1ccc(C(F)(F)C(=O)N[C@H](C(=O)Nc2ccc([C@H](C)[C@@H](NC(=O)c3cnsc3)C(=O)N3CCN(C)CC3)cc2F)[C@H]2CC[C@H](C)CC2)cn1 [Compound 622] | 10 to 100 nM
35 | CCn1nccc1C(=O)N[C@H](C(=O)Nc1ccc(C[C@@H](NC(=O)c2ccnn2-c2ccc(=O)[nH]c2)C(=O)N2CCN(C)CC2)cc1F)C1CCCCC1 [Compound 623] | 100 to 10000 nM
36 | CCn1nccc1C(=O)N[C@H](C(=O)Nc1ccc([C@H](C)[C@@H](NC(=O)c2cc(C#N)cs2)C(=O)N2CCN(C)CC2)cc1F)C1CCCCC1 [Compound 624] | 100 to 10000 nM
37 | CCC(=O)N[C@@H](C(=O)N1CCN(C)CC1)[C@@H](C)c1ccc(NC(=O)[C@@H](NC(=O)C(F)(F)C23CC(C2)C3)C2CCCCC2)c(F)c1 [Compound 625] | 100 to 10000 nM
38 | CCC(=O)N[C@@H](C(=O)N1CCN(C)CC1)[C@@H](C)c1ccc(NC(=O)[C@@H](NC(=O)C(=O)c2ccc(NS(C)(=O)=O)nc2)C2CCCCCC2)c(F)c1 [Compound 626] | 100 to 10000 nM
39 | CCC(=O)N[C@H](Cc1ccc(NC(=O)[C@@H](NC(=O)c2ccnn2CC)[C@H]2CC[C@H](C)CC2)c(F)c1)C(=O)N1CCN(C)CC1 [Compound 627] | 100 to 10000 nM
40 | CCn1nccc1C(=O)N[C@H](C(=O)Nc1ccc([C@H](C)[C@@H](NC(=O)NC2CCC2)C(=O)N2CCN(C)CC2)cc1F)C1CCCCC1 [Compound 628] | 100 to 10000 nM
41 | CCC(=O)N[C@@H](C(=O)N1CC(F)(F)C1)[C@@H](C)c1ccc(NC(=O)[C@@H](NC(=O)c2ccnn2CC)C2CCCCC2)c(F)c1 [Compound 629] | 100 to 10000 nM
42 | CCC(=O)N[C@H](Cc1ccc(NC(=O)[C@@H](NC(=O)c2conc2CC)[C@H]2CC[C@H](C)CC2)c(F)c1)C(=O)N1CCN(C)CC1 [Compound 630] | 100 to 10000 nM
43 | CCC(=O)N[C@@H](C(=O)N1CCN(C)CC1)[C@@H](C)c1ccc(NC(=O)[C@@H](NC(=O)c2csc3ccncc23)C2CCCCC2)c(F)c1 [Compound 631] | 100 to 10000 nM
